Experimental data from patent publication US10309967B2, “Methods of diagnosing bipolar disorders and screening for therapeutic compounds” (National University Corporation Chiba University, priority 2015, dated 2019).
Entries after “also recorded” stand apart in the source; their conditions may differ.

How the values were obtained:
Aco1 = assay: Quantitative PCR of Aco1 mRNA in rat prefrontal cortex and hippocampus after Li or VPA; format: in vivo; conditions: normalized to Gapdh; for Aco1 gene expression: relative to control, mean ± SD
Procedure: (§1) Real-time quantitative RT-PCR analysis was conducted using an ABI7900HT Fast Real-Time PCR System (Applied Biosystems, Foster City, Calif.) in both human and rat samples. TaqMan probes and primers for the seven genes (ACO1, ACO2, IDH1, IDH2, IDH3A, IDH3B, IDH3G) and GAPDH (an internal control) (Table 11) were TAQMAN® Gene Expression Assays products (Applied Biosystems).
(§2) The CSF concentrations of 116 major metabolites from several pathways were measured. […] Male Sprague-Dawley rats (Japan SLC Inc., Shizuoka, Japan) aged 6 weeks old were used in this study. All rats were housed in groups of three per cage in a room maintained at 23° C.±2° C. and 60±10% humidity with a 12/12 hour light/dark cycle (lights on at 7:00 a.m.). The rats were given free access to food and water. Animal care and use were conducted in accordance with the Institutional Guidelines for Animal Care and Use of Otsuka Pharmaceutical Co., Ltd. (Tokushima, Japan). […] The drinking water was replaced twice a week. […] All animals were decapitated on day 30 after CSF sampling, and brain regions (prefrontal cortex, and hippocampus) were dissected rapidly on ice. Metabolomic analyses of rat CSF samples were performed as described herein.
(§3) Prefrontal cortex, and hippocampus were dissected rapidly on ice and stored in RNA later (Applied Biosystems) at 4° C. until used for RNA isolation, cDNA synthesis and polymerase chain reaction (PCR) amplification. The total RNA was extracted using the RNeasy Lipid Tissue Mini Kit (QIAGEN) following the instructions of manufacturer. RNA yield and integrity was assessed using Nanodrop (NanoDrop Technologies). Reverse transcription of total RNA was done using the […] VILO cDNA Synthesis Kit (Invitrogen). In the quantitative PCR, the cDNA was amplified using commercial TaqMan assays (Applied Biosystems) for rat Idh3A (Rn00586270_m1), Idh3B (Rn00504589_g1), Aco1 (Rn00569045_m1), Aco2 (Rn00577876_m1) and Gapdh (Rn01775763_g1) with an ABI 7500 Fast Real-Time PCR system (Applied Biosystems). (Table 17) Reactions were performed in triplicates. All reactions were normalized to Gapdh and presented as relative expression changes compared to control.

serum samples from rats = assay: Metabolomics of serum samples from rats chronically treated with Li or VPA; format: in vivo, rat; conditions: chronic (4-weeks) treatment
Procedure: Data from human samples are presented as mean±standard deviation (SD). Statistical analysis was performed using SAS software version 9.3 (SAS Institute, Cary, N.C.). Analyses of metabolites between control and BD groups were performed using unpaired t-tests and Wilcoxon rank sum tests. A logistic regression model with a stepwise selection method was used for the multivariate analysis and multiple regression analysis (consistent with description in Allen et al., Technometrics. 1974; 16(1):125-127; and Miller et al., Chapman and Hall. 1974, which are incorporated in their entireties by reference herein). […] The Mann-Whitney U test (two-tailed) was used to evaluate changes in expression levels of the ACO and IDH genes between control and BD groups. Rat data are presented as mean±SD. To determine the effects of drug treatment, a one-way ANOVA, followed by the post hoc Dunnett's test was used. P values of less than 0.05 for two-tailed tests were considered statistically significant.
as §2
The serum concentrations of 116 major metabolites from several pathways were measured.

Idh3b = assay: Quantitative PCR of Idh3b mRNA in rat prefrontal cortex and hippocampus after Li or VPA; format: in vivo; conditions: normalized to Gapdh; for Idh3b gene expression: relative to control, mean ± SD
Procedure: as §1, §2, §3

Aco2 = assay: Quantitative PCR of Aco2 mRNA in rat prefrontal cortex and hippocampus after Li or VPA; format: in vivo; conditions: normalized to Gapdh; for Aco2 gene expression: relative to control, mean ± SD
Procedure: as §1, §2, §3

Idh3a = assay: Quantitative PCR of Idh3a mRNA in rat prefrontal cortex and hippocampus after Li or VPA; format: in vivo; conditions: normalized to Gapdh; for Idh3a gene expression: relative to control, mean ± SD
Procedure: as §1, §2, §3

[1] = rat prefrontal cortex and hippocampus, chronic (4-weeks) treatment, vs control

Structure (SMILES): O=C([O-])[O-].[Li+].[Li+] [Li, lithium carbonate]
- Aco1 gene expression (Aco1; rat hippocampus): 1.0171 ± 0.0497
- mRNA levels of Aco1 (Aco1; [1]): did not alter; also recorded: not altered
- Aco1 gene expression (Aco1; rat prefrontal cortex): 1.0091 ± 0.1737
- 2,3-Diphosphoglyceric acid Mean (serum samples from rats; rat serum): 2.3
- 2-Hydroxyglutaric acid Mean (serum samples from rats; rat serum): 2.7
- 2-Oxoglutaric acid Mean (serum samples from rats; rat serum): 64
- 2-Oxoisovaleric acid Mean (serum samples from rats; rat serum): 12
- 2-Phosphoglyceric acid Mean (serum samples from rats; rat serum): 0.7
- 3-Phosphoglyceric acid Mean (serum samples from rats; rat serum): 5.5
- ADP-ribose Mean (serum samples from rats; rat serum): 0.2
- AMP Mean (serum samples from rats; rat serum): 0.5
- ATP Mean (serum samples from rats; rat serum): 4.3
- Ala Mean (serum samples from rats; rat serum): 671
- Arg Mean (serum samples from rats; rat serum): 206
- Argininosuccinic acid Mean (serum samples from rats; rat serum): 0.6
- Asn Mean (serum samples from rats; rat serum): 87
- Asp Mean (serum samples from rats; rat serum): 13
- Betaine Mean (serum samples from rats; rat serum): 259
- Carnitine Mean (serum samples from rats; rat serum): 65
- Carnosine Mean (serum samples from rats; rat serum): 0.2
- Choline Mean (serum samples from rats; rat serum): 15
- Citric acid Mean (serum samples from rats; rat serum): 212
- Citrulline Mean (serum samples from rats; rat serum): 103
- Creatine Mean (serum samples from rats; rat serum): 104
- Creatinine Mean (serum samples from rats; rat serum): 26
- Cystathionine Mean (serum samples from rats; rat serum): 1.2
- Fructose 1,6-diphosphate Mean (serum samples from rats; rat serum): 0.3
- Fructose 6-phosphate Mean (serum samples from rats; rat serum): 0.10
- Fumaric acid Mean (serum samples from rats; rat serum): 4.0
- GDP Mean (serum samples from rats; rat serum): 0.5
- GMP Mean (serum samples from rats; rat serum): 0.12
- GTP Mean (serum samples from rats; rat serum): 2.0
- Gln Mean (serum samples from rats; rat serum): 817
- Glu Mean (serum samples from rats; rat serum): 140
- Glucose 6-phosphate Mean (serum samples from rats; rat serum): 0.6
- Glutathione (GSSG) Mean (serum samples from rats; rat serum): 0.5
- Gly Mean (serum samples from rats; rat serum): 340
- Glycerol 3-phosphate Mean (serum samples from rats; rat serum): 3.1
- Glycolic acid Mean (serum samples from rats; rat serum): 9.4
- His Mean (serum samples from rats; rat serum): 89
- Hydroxyproline Mean (serum samples from rats; rat serum): 65
- IMP Mean (serum samples from rats; rat serum): 0.14
- Ile Mean (serum samples from rats; rat serum): 119
- Isocitric acid Mean (serum samples from rats; rat serum): 9.5
- Lactic acid Mean (serum samples from rats; rat serum): 2,764
- Leu Mean (serum samples from rats; rat serum): 199
- Lys Mean (serum samples from rats; rat serum): 468
- Malic acid Mean (serum samples from rats; rat serum): 23
- Met Mean (serum samples from rats; rat serum): 59
- Mevalonic acid Mean (serum samples from rats; rat serum): 0.05
- N,N-Dimethylglycine Mean (serum samples from rats; rat serum): 18
- N-Carbamoylaspartic acid Mean (serum samples from rats; rat serum): 0.02
- NAD^+ Mean (serum samples from rats; rat serum): 1.1
- Ornithine Mean (serum samples from rats; rat serum): 75
- Phe Mean (serum samples from rats; rat serum): 67
- Phosphocreatine Mean (serum samples from rats; rat serum): 0.7
- Pro Mean (serum samples from rats; rat serum): 272
- Putrescine Mean (serum samples from rats; rat serum): 0.4
- Pyruvic acid Mean (serum samples from rats; rat serum): 126
- Ribose 1-phosphate Mean (serum samples from rats; rat serum): 0.3
- Ribose 5-phosphate Mean (serum samples from rats; rat serum): 0.04
- Ribulose 5-phosphate Mean (serum samples from rats; rat serum): 0.2
- Sarcosine Mean (serum samples from rats; rat serum): 7.2
- Ser Mean (serum samples from rats; rat serum): 319
- Succinic acid Mean (serum samples from rats; rat serum): 17
- Thr Mean (serum samples from rats; rat serum): 298
- Trp Mean (serum samples from rats; rat serum): 148
- Tyr Mean (serum samples from rats; rat serum): 95
- UDP-glucose Mean (serum samples from rats; rat serum): 0.6
- Urea Mean (serum samples from rats; rat serum): 6,360
- Uric acid Mean (serum samples from rats; rat serum): 23
- Val Mean (serum samples from rats; rat serum): 283
- cAMP Mean (serum samples from rats; rat serum): 0.04
- cGMP Mean (serum samples from rats; rat serum): 0.02
- cis-Aconitic acid Mean (serum samples from rats; rat serum): 4.3
- β-Ala Mean (serum samples from rats; rat serum): 2.0
- serum levels of 2-oxoglutaric acid (serum samples from rats; rats, vs control): significantly increased
- serum levels of N-acetylglutamic acid (serum samples from rats; rats, vs control): not altered
- serum levels of arginine (serum samples from rats; rats, vs control): not altered
- serum levels of pyruvic acid (serum samples from rats; rats, vs control): not altered
- serum levels of serine (serum samples from rats; rats, vs control): not altered
- serum levels of β-alanine (serum samples from rats; rats, vs control): not altered
- Idh3b gene expression (Idh3b; rat hippocampus): 1.3074 ± 0.2494
- mRNA levels of Idh3b (Idh3b; [1]): did not alter; also recorded: not altered
- Idh3b gene expression (Idh3b; rat prefrontal cortex): 1.3440 ± 0.4424
- Aco2 gene expression (Aco2; rat hippocampus): 1.1340 ± 0.1248
- mRNA levels of Aco2 (Aco2; [1]): did not alter; also recorded: not altered
- Aco2 gene expression (Aco2; rat prefrontal cortex): 0.9921 ± 0.1576
- Idh3a gene expression (Idh3a; rat hippocampus): 1.2250 ± 0.2326
- mRNA levels of Idh3a (Idh3a; [1]): did not alter; also recorded: not altered
- Idh3a gene expression (Idh3a; rat prefrontal cortex): 1.3420 ± 0.5725
